Where two headings read alike, the source gives them in different places.
Experiments:
mAb SH2 [1] = experiment: Competitive ELISA: inhibition of mAb SH2 binding to immobilized (DimLe^x)16-BSA conjugate 1; parameters: species or system mouse; settings: for IC50: DimLe^x-BSA conjugate 1 immobilized (5 μg/mL), SH2 ascites 1:500; for ∆(∆G): RT ln([I1]/[I2]), reference inhibitor DimLe^x 6; for ∆(∆G) / SH2 ∆(∆G): T = 296 K; for SH2 ∆(∆G): reference inhibitor Le^x 7, --- = No inhibition
Experimental: A MaxiSorp NUNC 96-well ELISA microtiter plate was coated with a dilution of the (DimLe^x)16-BSA conjugate 1 (100 μL per well, 5 μg/mL) in a 10 mM PBS solution at pH 7.1. The plate was covered with sealing tape and incubated at 4 °C overnight. The antigen solution was discarded, and the plate was washed (using ELx405 auto plate washer, 5 × 15 s) with a 10 mM PBS buffer at pH 7.3 containing 0.05% Tween 20. In 1.5 mL Eppendorf tubes, 175 μL dilutions of competitors (concentration ranging from 0.632 mg/mL to 2 mg/mL in 10 mM PBS-0.05% Tween 20) were incubated for 1 h at 23 °C (in the dark) with 175 μL of a solution of SH2 ascites (1:500 dilution in 10 mM PBS-0.05% Tween 20). At the same time, the plate was blocked with 0.05% skim milk in PBS (300 μL per well). After 1 h of incubation at 37 °C, the plate was washed with 10 mM PBS-0.05% Tween 20. Each well then received 100 μL of the competitor-mAb mixture. Three wells were used as the blank control in which the competitor-mAb mixture was not added, rather received 100 μL of 10 mM PBS-0.05% Tween 20. The plate was incubated for 3 h at 23 °C (in the dark). The plate was subsequently washed using the plate washer with PBS-0.05% Tween 20. A dilution of commercially available horseradish peroxidase labeled goat anti-mouse antibody (1:5000 in 10 mM PBS-0.05% Tween 20, 100 μL per well) was added to each well. After 1 h of incubation at 23 °C (in the dark), the plate was washed with 10 mM PBS-0.05% Tween 20. A solution of the chromogenic substrate TMB (100 μL per well) was added. After a 10 min incubation period at 23 °C (in the dark), 100 μL of 5% Phosphoric Acid stop solution was added to the wells to quench the reaction. The absorbance values were read at 450 nm employing a PowerWave XS plate reader. All samples were prepared in triplicate. The absorbance values were plotted as the percentage inhibition against an increasing concentration of competitor, calculated using wells containing no competitor as the reference point. The values were fitted to a 4-parameter logistics sigmoidal equation: y = y0 + a/[1 + (x/x0)^b] using Sigma Plot 10.0. The concentration of each analogue required for 50% inhibition (IC50) of Le^x-SH2 binding and the corresponding changes in free energy Δ(ΔG) of binding (kcal·mol^−1) using DimLe^xOPr 6 (Table 1) or Le^xOMe 7 (Table 2) as the reference were calculated.

mAb 1G5F6 = test system: mAb 1G5F6; parameters: method as in PMID 31666308; settings: DimLe^x-BSA conjugate 1 immobilized; Le^x trisaccharide 7 as reference; --- = No inhibition; cited from earlier work
mAb SH1 = settings: cited from earlier work; for SH1 ∆(∆G): Le^x-BSA conjugate 4 immobilized, Le^x trisaccharide 7 as reference, --- = No inhibition
mAb SH2 [2] = experiment: Indirect titration ELISA of SH2 ascites against coated glycoconjugates; type: binding, mouse; settings: for Binding of SH2 to coated antigen (titration, in words): antigens coated at 10 μg/mL, 2 and 5 also at 20 µg/mL (not shown)
Experimental: MaxiSorp NUNC 96-well enzyme-linked immunosorbent assay (ELISA) microtiter plate (Thermo Fisher Scientific) was coated with a dilution of glycoconjugates 1–5 and BSA (100 μL per well, […]) in a 10 mM phosphate-buffered saline (PBS) solution at pH 7.1. The plate was covered with sealing tape and incubated at 4 °C overnight. The antigen solution was discarded, and the plate was washed (using ELx405 auto plate washer, 5 × 15 s) with a 10 mM PBS buffer at pH 7.3 containing 0.05% Tween 20. The plate was blocked with 0.05% skim milk in 10 mM PBS (300 μL per well) and incubated for 1 h at 37 °C. The plate was then washed with 10 mM PBS-0.05% Tween 20. A 1:100 dilution of SH2 ascites was prepared and 146 μL of the dilution was distributed in the wells corresponding to the primary dilution. All other wells received 100 μL of the 10 mM PBS-0.05% Tween 20 pH 7.3 buffer. In-plate serial dilutions were performed in which 46 μL of the primary dilution was pipetted downward along the rows. The well contents were mixed by rinsing the pipette tips (7×). Lastly, 46 μL of the mAb solution was removed and discarded from the wells, which received the final solution of mAb (final volume in all wells, 100 μL). The last row of the 96-well plate was used as the blank control. MAb SH2 ascites were not pipetted into these wells, rather 100 μL of 10 mM PBS-0.05% Tween 20 was added. The plate was incubated for 2 h at 23 °C (in the dark). The plate was subsequently washed using the plate washer with PBS-0.05% Tween 20. A dilution of commercially available horseradish peroxidase labeled goat anti-mouse antibody (Mandel Scientific) (1:5000 in 10 mM PBS-0.05% Tween 20, 100 μL per well) was added to each well. After 1 h of incubation at 23 °C (in the dark), the plate was washed with PBS-0.05% Tween 20. A solution of the chromogenic substrate 3,3′,5,5′-tetramethylbenzidine (TMB) (Mandel Scientific) (100 μL per well) was added. After a 10 min incubation period at 23 °C (in the dark), 100 μL of 5% Phosphoric Acid stop solution was added to the wells to quench the reaction. The absorbance values were read at 450 nm employing a PowerWave XS plate reader. All samples were prepared in triplicate. The absorbance values were plotted against an increasing serum dilution. The values were fitted to a 4-parameter logistics sigmoidal equation: y = y0 + a/[1 + (x/x0)^b] using Sigma Plot®® 10.0.

[3] = Table 1, read-out: IC50 (concentration of inhibitor required for 50% inhibition)

Row | Molecule | 1G5F6 ∆(∆G) (mAb 1G5F6) | SH1 ∆(∆G) (mAb SH1) | SH2 ∆(∆G) (mAb SH2 [1]; Table 2) | IC50 (mAb SH2 [1]; Table 2, read-out: SH2 IC50) | also measured
1 | CCCO[C@@H]1O[C@H](CO)[C@@H](O[C@@H]2O[C@H](CO)[C@H](O)[C@H](O[C@@H]3O[C@H](CO)[C@@H](O[C@@H]4O[C@H](CO)[C@H](O)[C@H](O)[C@H]4O)[C@H](O[C@@H]4O[C@@H](C)[C@@H](O)[C@@H](O)[C@@H]4O)[C@H]3NC(C)=O)[C@H]2O)[C@H](O[C@@H]2O[C@@H](C)[C@@H](O)[C@@H](O)[C@@H]2O)[C@H]1NC(C)=O [compound 6, DimLe^x propyl hexasaccharide] |  |  |  |  | IC50 (mAb SH2 [1]; [3]): 503 µM; ∆(∆G) (mAb SH2 [1]; Table 1): 0 kcal/mol
2 | CO[C@@H]1O[C@H](CO)[C@@H](O[C@@H]2O[C@H](CO)[C@H](O)[C@H](O)[C@H]2O)[C@H](O[C@@H]2O[C@@H](C)[C@@H](O)[C@@H](O)[C@@H]2O)[C@H]1NC(C)=O [compound 7, Le^x methyl glycoside] | 0 kcal/mol | 0 kcal/mol | 0 kcal/mol |  | IC50 (mAb SH2 [1]; [3]): 47 µM; ∆(∆G) (mAb SH2 [1]; Table 1): -1.4 kcal/mol
3 | CC(=O)NC1C(OC2C(O)C(O)OC(CO)C2O)OC(CO)C(OC2OC(CO)C(O)C(O)C2O)C1OC1OC(C)C(O)C(O)C1O (stereo not drawn) [compound 9, Lex[1,3]Gal, reference compound] |  |  |  |  | IC50 (mAb SH2 [1]; [3]): 529 µM; ∆(∆G) (mAb SH2 [1]; Table 1): 0.03 kcal/mol
4 | CO[C@@H]1O[C@H](CO)[C@@H](O[C@@H]2O[C@H](CO)[C@H](O)[C@H](O[C@@H]3O[C@H](CO)[C@@H](O)[C@H](O)[C@H]3NC(C)=O)[C@H]2O)[C@H](O[C@@H]2O[C@@H](C)[C@@H](O)[C@@H](O)[C@@H]2O)[C@H]1NC(C)=O [compound 10, GlcNAc[1,3″]Le^x] |  |  |  |  | IC50 (mAb SH2 [1]; [3]): 18600 µM; ∆(∆G) (mAb SH2 [1]; Table 1): 2.1 kcal/mol
5 | CCCCCCO[C@@H]1O[C@H](CO)[C@@H](O[C@@H]2O[C@H](CO)[C@H](O)[C@H](O[C@@H]3O[C@H](CO)[C@@H](O[C@@H]4O[C@H](CO)[C@H](O)[C@H](O)[C@H]4O)[C@H](O)[C@H]3NC(C)=O)[C@H]2O)[C@H](O[C@@H]2O[C@@H](C)[C@@H](O)[C@@H](O)[C@@H]2O)[C@H]1NC(C)=O [compound 13, LacNAc[1,3″]Lex] |  |  |  |  | Inhibition of SH2 binding to (DimLe^x)16-BSA by soluble oligosaccharide (in words) (mAb SH2 [1]): lack of competitive binding
6 | CCCCCO[C@@H]1O[C@H](CO)[C@@H](O[C@@H]2O[C@H](CO)[C@H](O)[C@H](O[C@@H]3O[C@H](CO)[C@@H](O)[C@H](O[C@@H]4O[C@@H](C)[C@@H](O)[C@@H](O)[C@@H]4O)[C@H]3NC(C)=O)[C@H]2O)[C@H](O[C@@H]2O[C@@H](C)[C@@H](O)[C@@H](O)[C@@H]2O)[C@H]1NC(C)=O [compound 14, Fuc[1,3,]GlcNAc[1,3″]Le^x] |  |  |  |  | Inhibition of SH2 binding to (DimLe^x)16-BSA by soluble oligosaccharide (in words) (mAb SH2 [1]): lack of competitive binding
7 | CO[C@@H]1O[C@H](CO)[C@@H](O[C@@H]2O[C@H](CO)[C@H](O)[C@H](O)[C@H]2O)[C@H](O[C@@H]2O[C@@H](C)[C@@H](O)[C@@H](O)[C@@H]2O)[C@H]1O [compound 15, LacLe^x] | 2.5 kcal/mol | 0.2 kcal/mol |  | > 1800 µM | Inhibition of SH2 binding to (DimLe^x)16-BSA by soluble oligosaccharide (in words) (mAb SH2 [1]): no inhibition
8 | COC1OC(CO)C(OC2OC(CO)C(O)C(O)C2O)C(OC2OC(C)C(O)C(O)C2O)C1NC(C)=O (stereo not drawn) [compound 16, GlcLe^x] | 2.7 kcal/mol |  |  | > 1800 µM | Binding by SH1 (in words) (mAb SH1; galactose of Le^x replaced by glucose): total loss of binding; Inhibition of SH2 binding to (DimLe^x)16-BSA by soluble oligosaccharide (in words) (mAb SH2 [1]): no inhibition
9 | CO[C@@H]1O[C@H](CO)[C@@H](O[C@@H]2O[C@H](CO)[C@H](O)[C@H](O)[C@H]2O)[C@H](O[C@@H]2O[C@@H](C)[C@H](O)[C@@H](O)[C@H]2O)[C@H]1NC(C)=O [compound 17, RhaLe^x] | 1.6 kcal/mol | 1.1 kcal/mol | 1.7 kcal/mol | 827 µM | 
10 | CO[C@@H]1O[C@H](CO)[C@@H](O[C@@H]2O[C@H](CO)[C@H](O)[C@H](O)[C@H]2O)[C@H](O[C@@H]2O[C@@H](C)[C@H](O)[C@@H](O)[C@H]2O)[C@H]1O [compound 18, RhaLac] | 3.2 kcal/mol | 1.5 kcal/mol |  | > 1800 µM | Inhibition of SH2 binding to (DimLe^x)16-BSA by soluble oligosaccharide (in words) (mAb SH2 [1]): no inhibition
11 | CO[C@@H]1O[C@H](CO)[C@@H](O[C@@H]2O[C@H](CO)[C@H](OC)[C@H](O)[C@H]2O)[C@H](O[C@@H]2O[C@@H](C)[C@@H](O)[C@@H](O)[C@@H]2O)[C@H]1O [compound 19] |  |  | 0.7 kcal/mol | 148 µM | 
12 | CO[C@@H]1O[C@H](CO)[C@@H](O[C@@H]2O[C@H](CO)C[C@H](O)[C@H]2O)[C@H](O[C@@H]2O[C@@H](C)[C@@H](O)[C@@H](O)[C@@H]2O)[C@H]1O [compound 20, 4″-HLe^x] | 0.3 kcal/mol | 1.3 kcal/mol | 0.3 kcal/mol | 74 µM | 
13 | CO[C@@H]1O[C@H](CO)[C@@H](O[C@@H]2O[C@H](CO)[C@H](Cl)[C@H](O)[C@H]2O)[C@H](O[C@@H]2O[C@@H](C)[C@@H](O)[C@@H](O)[C@@H]2O)[C@H]1O [compound 21, 4″-ClLe^x] | 0.3 kcal/mol | 1.6 kcal/mol | -0.5 kcal/mol | 19 µM | 
14 | CO[C@@H]1O[C@H](CO)[C@@H](O[C@@H]2O[C@H](CO)[C@H](F)[C@H](O)[C@H]2O)[C@H](O[C@@H]2O[C@@H](C)[C@@H](O)[C@@H](O)[C@@H]2O)[C@H]1O [compound 22, 4″-FLe^x] | -0.1 kcal/mol | 2.1 kcal/mol | -0.6 kcal/mol | 17 µM | 
15 | (DimLe^x)6-TT [compound 2] |  |  |  |  | Binding of SH2 to coated antigen (titration, in words) (mAb SH2 [2]): very little binding
16 | (DimLe^x)16-BSA [compound 1] |  |  |  |  | Titration curve of SH2 (in words) (mAb SH2 [2]; coating with 3 µg/mL of the conjugate (Figure S1)): did not reach maximum optical density; Inhibition of SH2 binding to (DimLe^x)16-BSA by glycoconjugates as soluble inhibitors (in words) (mAb SH2 [1]; (DimLe^x)16-BSA 1 immobilized, SH2 serum dilution 1:500 (Figure 5)): able to inhibit binding
17 | (GDimLe^x)16-BSA [compound 5] |  |  |  |  | Binding of SH2 to coated antigen (titration, in words) (mAb SH2 [2]): no binding
18 | bovine serum albumin [BSA, reference compound] |  |  |  |  | Binding of SH2 to coated antigen (titration, in words) (mAb SH2 [2]): no affinity

— PMC7563222, “Recognition of Dimeric Lewis X by Anti-Dimeric Le^x Antibody SH2” (Vaccines, 2020)
